28 molecules from patent US20240208964A1, “PYRIDOPYRIMIDINES AND METHODS OF THEIR USE” (PYRIDOPYRIMIDINES AND METHODS OF THEIR USE, priority 2020, published 2024) can be followed below.

Chain of full-length human PIKFYVE (GST-PIKFYVE) (Q9Y2I7 whole entry S696N/L932S/Q995L/T998S/S1033A/Q1183K, the tested form may be a part): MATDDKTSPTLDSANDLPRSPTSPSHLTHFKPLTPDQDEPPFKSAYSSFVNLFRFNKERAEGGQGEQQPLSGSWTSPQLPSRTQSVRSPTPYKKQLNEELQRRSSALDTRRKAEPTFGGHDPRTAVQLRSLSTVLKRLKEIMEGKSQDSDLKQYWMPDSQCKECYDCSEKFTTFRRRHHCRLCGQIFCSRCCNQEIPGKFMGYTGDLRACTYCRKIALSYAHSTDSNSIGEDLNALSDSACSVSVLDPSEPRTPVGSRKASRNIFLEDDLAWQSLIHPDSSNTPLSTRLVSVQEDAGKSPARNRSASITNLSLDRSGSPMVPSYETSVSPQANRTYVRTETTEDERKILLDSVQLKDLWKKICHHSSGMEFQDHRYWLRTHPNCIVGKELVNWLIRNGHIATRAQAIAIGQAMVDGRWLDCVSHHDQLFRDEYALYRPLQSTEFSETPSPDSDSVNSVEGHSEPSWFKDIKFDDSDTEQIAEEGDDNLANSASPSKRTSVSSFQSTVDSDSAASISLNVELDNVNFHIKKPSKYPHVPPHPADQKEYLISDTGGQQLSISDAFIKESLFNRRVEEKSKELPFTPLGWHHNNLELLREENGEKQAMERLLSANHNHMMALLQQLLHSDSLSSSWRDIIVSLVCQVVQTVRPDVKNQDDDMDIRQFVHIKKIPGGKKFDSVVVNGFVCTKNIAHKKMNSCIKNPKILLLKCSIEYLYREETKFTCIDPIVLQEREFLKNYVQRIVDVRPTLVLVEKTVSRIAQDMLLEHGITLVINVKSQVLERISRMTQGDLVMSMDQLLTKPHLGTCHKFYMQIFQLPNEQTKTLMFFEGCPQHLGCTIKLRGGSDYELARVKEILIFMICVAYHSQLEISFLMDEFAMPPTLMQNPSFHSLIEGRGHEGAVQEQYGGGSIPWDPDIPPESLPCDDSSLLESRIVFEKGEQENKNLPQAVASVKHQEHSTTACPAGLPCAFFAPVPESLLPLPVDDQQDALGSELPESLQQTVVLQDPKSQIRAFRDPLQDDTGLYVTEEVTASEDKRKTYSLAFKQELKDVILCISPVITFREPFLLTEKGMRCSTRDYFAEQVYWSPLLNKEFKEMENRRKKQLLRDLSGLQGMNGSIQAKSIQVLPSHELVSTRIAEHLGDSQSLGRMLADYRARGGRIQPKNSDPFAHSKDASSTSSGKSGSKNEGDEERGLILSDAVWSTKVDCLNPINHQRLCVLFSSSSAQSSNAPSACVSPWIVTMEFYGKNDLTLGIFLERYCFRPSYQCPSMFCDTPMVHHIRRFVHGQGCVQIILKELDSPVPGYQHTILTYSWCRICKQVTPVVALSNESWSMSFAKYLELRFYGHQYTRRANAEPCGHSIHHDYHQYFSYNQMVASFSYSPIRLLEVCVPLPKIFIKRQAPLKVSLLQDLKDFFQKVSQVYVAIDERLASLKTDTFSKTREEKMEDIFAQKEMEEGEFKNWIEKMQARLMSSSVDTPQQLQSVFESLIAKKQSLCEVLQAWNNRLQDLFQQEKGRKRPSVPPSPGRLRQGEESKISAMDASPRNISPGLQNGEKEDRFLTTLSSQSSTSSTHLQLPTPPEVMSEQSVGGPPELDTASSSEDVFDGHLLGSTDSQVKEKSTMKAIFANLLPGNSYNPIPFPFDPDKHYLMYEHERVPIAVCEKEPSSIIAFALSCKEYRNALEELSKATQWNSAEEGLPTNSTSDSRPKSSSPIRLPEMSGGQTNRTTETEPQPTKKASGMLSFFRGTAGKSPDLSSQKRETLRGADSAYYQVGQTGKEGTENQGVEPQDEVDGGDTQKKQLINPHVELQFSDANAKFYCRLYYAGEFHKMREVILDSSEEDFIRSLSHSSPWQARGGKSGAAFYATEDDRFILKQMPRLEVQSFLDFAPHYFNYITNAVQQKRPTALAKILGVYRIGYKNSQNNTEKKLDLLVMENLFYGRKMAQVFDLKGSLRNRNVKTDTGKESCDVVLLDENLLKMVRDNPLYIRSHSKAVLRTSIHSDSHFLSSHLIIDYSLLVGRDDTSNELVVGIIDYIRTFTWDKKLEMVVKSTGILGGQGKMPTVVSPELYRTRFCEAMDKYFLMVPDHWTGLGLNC

In one assay the target is full-length human PIKFYVE (GST-PIKFYVE) (Homo sapiens (Human), UniProt Q9Y2I7, L932S/Q1183K/Q995L/S1033A/S696N/T998S). The assay is described as follows: PIKfyve biochemical assay (ADP-Glo Kinase assay, Carna Biosciences). The note with it: ADP-Glo, full-length human PIKFYVE; read-out: hPIKfyve IC50. An excerpt:
PIKfyve Biochemical Assay. The biochemical PIKFyve inhibition assays were run by Carna Biosciences according to proprietary methodology based on the Promega ADP-Glo™ Kinase assay. A full-length human PIKFYVE [1-2098(end) amino acids and S696N, L932S, Q995L, T998S, S1033A and Q1183K of the protein having the sequence set forth in NCBI Reference Sequence No. NP_055855.2] was expressed as N-terminal GST-fusion protein (265 kDa) using baculovirus expression system. GST-PIKFYVE was purified by using glutathione sepharose chromatography and used in an ADP-Glo™ Kinase assay (Promega). Reactions were set up by adding the test compound solution, substrate solution, ATP solution and kinase solution, each at 4× final concentrations. Reactions were prepared with assay buffer (50 mM MOPS, 1 mM DTT, pH7.2), mixed, and incubated in black 384 well polystyrene plates for 1 hour at room temperature. ADP-Glo™ reagent was then added for 40 minutes, followed by kinase detection reagent for an additional 40 minutes. The kinase activity was evaluated by detecting relative light units on a luminescence plate reader. Samples were run in duplicate from 10 μM to 3 nM. […] IC50 values were calculated from concentration vs % inhibition curves by fitting to a four-parameter logistic curve.
The biochemical PIKFyve inhibition assays were run by Carna Biosciences according to proprietary methodology based on the Promega ADP-Glo™ Kinase assay. A full-length human PIKFYVE [1-2098(end) amino acids and S696N, L932S, Q995L, T998S, S1033A and Q1183K of accession number NP_055855.2] was expressed as N-terminal GST-fusion protein (265 kDa) using baculovirus expression system. GST-PIKFYVE was purified by using glutathione sepharose chromatography and used in an ADP-Glo™ Kinase assay (Promega).
Reactions were set up by adding the test compound solution, substrate solution, ATP solution and kinase solution, each at 4× final concentrations. Reactions were prepared with assay buffer (50 mM MOPS, 1 mM DTT, pH7.2), mixed, and incubated in black 384 well polystyrene plates for 1 hour at room temperature. ADP-Glo™ reagent was then added for 40 minutes, followed by kinase detection reagent for an additional 40 minutes. The kinase activity was evaluated by detecting relative light units on a luminescence plate reader. Samples were run in duplicate from 10 uM to 3 nM. […] IC50 values were calculated from concentration vs % inhibition curves by fitting to a four-parameter logistic curve.
A general note: ADP-Glo first removes unused ATP, then detects ADP through luciferase.
In the case of `c1ccc(Nc2nc(N3CCOCC3)c3ncc(Cc4cccnc4)cc3n2)cc1` [compound 79], the IC50 was 0.1 to 1 µM.

Consider `c1ccc(-c2ccn(-c3nc(N4CCOCC4)c4ncccc4n3)n2)cc1` [compound 8, 4-(2-(3-phenyl-1H-pyrazol-1-yl)pyrido[3,2-d]pyrimidin-4-yl)morpholine], for which the IC50 is 0.01 to 0.1 µM.

`Cc1cccc(-c2cc(O)n(-c3nc(N4CCOCC4)c4ncc(Cc5cccnc5)cc4n3)n2)c1` [compound 81]: the IC50 was 0.01 to 0.1 µM.

On to `Cc1cccc(/C=N/Nc2nc(N3CCOCC3)c3ncc(Cc4cccnc4)cc3n2)c1` [compound 80], for which the IC50 fell in the range of 0.01 to 0.1 µM.

With `CCC(=O)N1CCC(c2ccn(-c3nc(N4CCOCC4)c4ncccc4n3)n2)CC1` [compound 1, 1-[4-[1-(4-morpholinopyrido[3,2-d]pyrimidin-2-yl)pyrazol-3-yl]-1-piperidyl]propan-1-one], the half-maximal inhibitory concentration (IC50) was in the range of 1 to 10 µM.

In the case of `c1cnc2c(N3CCOCC3)nc(-n3ccc(C4CCCNC4)n3)nc2c1` (stereo not drawn) [compound 48], the IC50 is 1 to 10 µM.

As for `c1cnc2c(N3CCOCC3)nc(-n3ccc(C4CCNCC4)n3)nc2c1` [compound 42, 4-[2-[3-(4-piperidyl)pyrazol-1-yl]pyrido[3,2-d]pyrimidin-4-yl]morpholine], the IC50 was 1 to 10 µM.

Turning to `Oc1cc(-c2ccccc2)nn1-c1nc(N2CCOCC2)c2cccnc2n1` [compound 25, 2-(4-morpholinopyrido[2,3-d]pyrimidin-2-yl)-5-phenyl-2,4-dihydro-3H-pyrazol-3-one], the concentration for half-maximal inhibition (IC50) lay within 1 to 10 µM.

Regarding `c1ccc(Oc2nc(N3CCOCC3)c3ncc(Cc4cccnc4)cc3n2)cc1` [compound 84], the IC50 lay within 1 to 10 µM.

Regarding `c1coc(-c2nc(N3CCOCC3)c3ncccc3n2)c1` [compound 74], the IC50 was in the range of 0.1 to 1 µM.

With `c1ccc(-c2ccn(-c3nc(N4CCOCC4)c4cnccc4n3)n2)cc1` [compound 46, 4-(2-(3-phenyl-1H-pyrazol-1-yl)pyrido[4,3-d]pyrimidin-4-yl)morpholine], the IC50 lay within 1 to 10 µM.

Take `CC(C)(C)OC(=O)N1CCC=C(c2ccn(-c3nc(N4CCOCC4)c4ncccc4n3)n2)C1` [compound 4, tert-butyl 3-(1-(4-morpholinopyrido[3,2-d]pyrimidin-2-yl)-1H-pyrazol-3-yl)-5,6-dihydropyridine-1(2H)-carboxylate]: the IC50 lay within 1 to 10 µM.

For `Cc1cccc(CCNc2nc(N3CCOCC3)c3ncc(C(=O)c4cccnc4)cc3n2)c1` [compound 77], the IC50 fell in the range of 0.1 to 1 µM.

For the molecule `Clc1nc(N2CCOCC2)c2ncc(Cc3cccnc3)cc2n1` [compound 82], the IC50 is 1 to 10 µM.

`CC(C)(C)OC(=O)N1CC=C(c2ccn(-c3nc(N4CCOCC4)c4ncccc4n3)n2)CC1` [compound 3, tert-butyl 4-[1-(4-morpholinopyrido[3,2-d]pyrimidin-2-yl)pyrazol-3-yl]-3,6-dihydro-2H-pyridine-1-carboxylate]: the half-maximal inhibitory concentration (IC50) was 1 to 10 µM.

Take `CC(C)(C)OC(=O)N1CCN(c2nccc(-c3nc(N4CCOCC4)c4ncccc4n3)n2)CC1` [compound 55, tert-butyl 4-[4-(4-morpholinopyrido[3,2-d]pyrimidin-2-yl)pyrimidin-2-yl]piperazine-1-carboxylate]: the IC50 lay within 1 to 10 µM.

For the molecule `c1ccc(Oc2nc(N3CCOCC3)c3ncc(C4CCCO4)cc3n2)cc1` (stereo not drawn) [compound 88], the half-inhibitory concentration (IC50) was 1 to 10 µM.

Still in this assay, the particulars now being: values plotted in FIG. 7; read-out: PIKFYVE Biochemistry (IC50).
On to `Fc1cccc(-c2ccnn2-c2nc(N3CCOCC3)c3ncccc3n2)c1`, for which the half-inhibitory concentration (IC50) is more than 10 µM.

With `O=c1c(CCOc2cccnc2)cc2ncncc2n1-c1ccccc1`, the IC50 is more than 10 µM.

For the molecule `O=c1ccn(Cc2nc(N3CCOCC3)cc(-n3nccc3-c3ccccc3)n2)cc1`, the IC50 is more than 10 µM.

Another assay deals with PIKFYVE TDP-43 yeast strain. Kind of assay: Propidium iodide viability assay in PIKFYVE TDP-43 yeast strain. The note with it: Saccharomyces cerevisiae; reduction in PI-positive cells, 24 hours, up to 15 μM. The class given is cell-based. The source says:
Generation of TDP-43 yeast model expressing human PIKfyve. Human PIKFYVE (“entry clone”) was cloned into pAG416GPDccdB (“destination vector”) according to standard Gateway cloning protocols (Invitrogen, Life Technologies). The resulting pAG416GPD-PIKFYVE plasmids were amplified in E. coli and plasmid identity confirmed by restriction digest and Sanger sequencing. Lithium acetate/polyethylene glycol-based transformation was used to introduce the above PIKFYVE plasmid into a BY4741 yeast strain auxotrophic for the ura3 gene and deleted for two transcription factors that regulate the xenobiotic efflux pumps, a major efflux pump, and FAB1, the yeast ortholog of PIKFYVE (MATa, snq2::KILeu2; pdr3::Klura3;pdrl::NATMX; fab1::G418^R, his3;leu2;ura3;met15;LYS2+) (FIG. 2). Transformed yeast were plated on solid agar plates with complete synthetic media lacking uracil (CSM-ura) and containing 2% glucose. Individual colonies harboring the control or PIKFYVE TDP-43 plasmids were recovered. A plasmid containing wild-type TDP-43 under the transcriptional control of the GAL1 promoter and containing the hygromycin-resistance gene as a selectable marker was transformed into the fab1::G418^R pAG416GPD-PIKFYVE yeast strain (FIG. 1). Transformed yeast were plated on CSM-ura containing 2% glucose and 200 μg/mL […] after overnight recovery in media lacking antibiotic. Multiple independent isolates were further evaluated for cytotoxicity and TDP-43 expression levels.
Viability Assay. A control yeast strain with the wild-type yeast FAB1 gene and TDP-43 (“FAB1 TDP-43”, carries empty pAG416 plasmid), and the “PIKFYVE TDP-43” yeast strain, were assessed for toxicity using a propidium iodide viability assay. Both yeast strains were transferred from solid CSM-ura/2% glucose agar plates into 3 mL of liquid CSM-ura/2% glucose media for 6-8 hours at 30° C. with aeration. Yeast cultures were then diluted to an optical density at 600 nm wavelength (OD600) of 0.005 in 3 mL of CSM-ura/2% raffinose and grown overnight at 30° C. with aeration to an OD600 of 0.3-0.8. Log-phase overnight cultures were diluted to OD600 of 0.005 in CSM-ura containing either 2% raffinose or galactose and 150 μL dispensed into each well of a flat bottom 96-well plates. Compounds formulated in 100% dimethyl sulfoxide (DMSO) were serially diluted in DMSO and 1.5 μL diluted compound transferred to the 96-well plates using a multichannel pipet. Wells containing DMSO alone were also evaluated as controls for compound effects. Tested concentrations ranged from 15 μM to 0.11 μM. Cultures were immediately mixed to ensure compound distribution and covered plates incubated at 30° C. for 24 hours in a stationary, humified incubator.
Upon the completion of incubation, cultures were assayed for viability using propidium iodide (PI) to stain for dead/dying cells. A working solution of PI was made where, for each plate, 1 μL of 10 mM PI was added to 10 mL of CSM-ura (raffinose or galactose). The final PI solution (50 μL/well) was dispensed into each well of a new round bottom 96-well plate. The overnight 96-well assay plate was then mixed with a multichannel pipet and 50 μL transferred to the PI-containing plate. This plate was then incubated for 30 minutes at 30° C. in the dark. A benchtop flow cytometer (Miltenyi MACSquant) was then used to assess red fluorescence (B2 channel), forward scatter, and side scatter (with following settings: gentle mix, high flow rate, fast measurement, 10,000 events). Intensity histograms were then gated for “PI-positive” or “PI-negative” using the raffinose and galactose cultures treated with DMSO as controls. The DMSO controls for raffinose or galactose-containing cultures were used to determine the window of increased cell death and this difference set to 100. All compounds were similarly gated and then compared to this maximal window to establish the percent reduction in PI-positive cells.
`Cc1cccc(/C=N/Nc2nc(N3CCOCC3)c3nc(-c4ccncc4)n(C)c3n2)c1` [drawing 308]: the IC50 came out at 4.72 µM.

As for `c1ccc(-c2cccc(-c3cc(N4CCOCC4)n4nc(-c5ccncc5)cc4n3)n2)cc1`, half-maximal inhibition (IC50) was put at 0.23 µM.

`Cc1cccc(/C=N/Nc2cc(N3CCOCC3)nc(OCCc3ccc(CN)cc3)n2)c1` yielded a half-maximal inhibitory concentration (IC50) of 1.12 µM.

For `Fc1cccc(-c2ccnn2-c2nc(N3CCOCC3)c3ncccc3n2)c1`, 5.75 µM corresponded to half-maximal inhibition (IC50).

The molecule `Cc1cccc(/C=N/Nc2nc(N3CCOCC3)c3ncccc3n2)c1` [drawing 311] yielded an IC50 of 8.21 µM.

The molecule `Oc1cc(-c2ccccc2)nn1-c1cc(N2CCOCC2)n2nc(-c3ccncc3)nc2n1` gave a 50% inhibitory concentration (IC50) of 0.693 µM.

`Oc1cc(C2CCOCC2)nn1-c1cc(N2CCOCC2)n2nc(-c3ccncc3)cc2n1` showed an IC50 of 9.11 µM.

Take `c1ccc(N2CCc3c(OCc4cccnc4)nc(N4CCOCC4)nc32)cc1`: the IC50 was found to be 2.69 µM.

Molecule `c1ccc(-c2ccnc(-c3cc(N4CCOCC4)nc(OCc4ccncc4)n3)n2)cc1` had a 50% inhibitory concentration (IC50) of 1.45 µM.

The target in a further assay is PIKfyve (PIKFYVE-NanoLuc fusion in HEK293 cells) (Homo sapiens (Human), UniProt Q9Y2I7). The assay is described as follows: NanoBRET TE Intracellular Kinase Assay, K-8 (Promega) cell-based assay. The note with it: 2 hours, read-out: hPIKfyve BRET IC50. As to the method: NanoBRET™ TE Intracellular Kinase Assay, K-8 (Promega) Cell-Based Assay. Intracellular inhibition of PIKfyve was assayed using Promega's NanoBRET™ TE Intracellular Kinase Assay, K-8 according to manufacturer's instructions. A dilution series of test compounds was added for 2 hours to HEK293 cells transfected for a minimum of 20 hours with PIKFYVE-NanoLuc® Fusion Vector (Promega) containing a full-length PIKfyve according to manufacturer's specifications in a 96-well plate. Kinase activity was detected by addition of a NanoBRET™ tracer reagent, which was a proprietary PIKfyve inhibitor appended to a fluorescent probe (BRET, bioluminescence resonance energy transfer). Test compounds were tested at concentrations of 10, 3, 1, 0.3, 0.1, 0.03, 0.01, 0.003 μM. BRET signals were measured by a GloMax®Discover Multimode Microplate Reader (Promega) using 0.3 sec/well integration time, 450BP donor filter and 600LP acceptor filters. Active test compounds that bound PIKfyve and displaced the tracer reduced BRET signal. IC50 values were then calculated by fitting the data to the normalized BRET ratio.
Chain of PIKfyve (PIKFYVE-NanoLuc fusion in HEK293 cells) (Q9Y2I7 whole entry, the tested form may be a part): as the sequence (Q9Y2I7 whole entry S696N/L932S/Q995L/T998S/S1033A/Q1183K, the tested form may be a part) above, with N696S, S932L, L995Q, S998T, A1033S, K1183Q counted along it
(In general: Bioluminescence resonance energy transfer reports proximity on the nanometre scale.)
For `c1ccc(Nc2nc(N3CCOCC3)c3ncc(Cc4cccnc4)cc3n2)cc1` [compound 79], the IC50 was in the range of 0.1 to 1 µM.

Take `c1ccc(-c2ccn(-c3nc(N4CCOCC4)c4ncccc4n3)n2)cc1` [compound 8, 4-(2-(3-phenyl-1H-pyrazol-1-yl)pyrido[3,2-d]pyrimidin-4-yl)morpholine]: the IC50 lay within 0.1 to 1 µM.

In the case of `Cc1cccc(-c2cc(O)n(-c3nc(N4CCOCC4)c4ncc(Cc5cccnc5)cc4n3)n2)c1` [compound 81], the IC50 fell in the range of 0.1 to 1 µM.

As to `Cc1cccc(/C=N/Nc2nc(N3CCOCC3)c3ncc(Cc4cccnc4)cc3n2)c1` [compound 80], the 50% inhibitory concentration (IC50) fell in the range of 0.01 to 0.1 µM.

As usually defined, the IC50 is the concentration at which inhibition is half-maximal.
